This note sets out measurements from US20220153732A1, “PROTEIN SECRETION INHIBITORS” (KEZAR LIFE SCIENCES, priority 2019, published 2022).

Holding throughout (format): cell-based
The subject of test [1] is PD1-ss+10aa/Gaussia Luciferase. Briefly: Dox-Induced PD1-ss-Gluc Assay. As to conditions: 293FRT/TO cells, read-out: 24 hr Dox Inducible PD1ssGluc 293FRT/TO: Mean IC50. Summed up: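 Stable cell line carrying PD1-ss+10aa/Gaussia luciferase cDNA under T-REx (doxycycline-inducible) control, plated the day before assay. Compound dilutions in DMSO/media containing doxycycline added and incubated at 37° C, 5% CO2. Undefined stereocentres: data refer to stereoisomer mixtures.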

Test [2] relates to HER3-ss+4aa/Gaussia Luciferase. Briefly: Dox-Induced Her3-ss-Gluc Assay. Conditions: 293FRT/TO cells, read-out: 24 hr Dox Inducible Her3(ss + 4)Gluc 293FRT/TO: Mean IC50. A digest of the protocol: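 Stable T-REx cell line carrying a doxycycline-regulated HER3-ss+4aa/Gaussia luciferase insert, plated the day before assay. Compound dilutions in DMSO/media with doxycycline added, then incubated at 37° C., 5% CO2. Stereoisomer mixtures tested where stereochemistry is not drawn.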

Test [3] relates to TNFα-FL/Gaussia Luciferase. The test is described as follows: Dox Induced TNFα-FL-Gluc Assay. As to conditions: 293FRT/TO cells, read-out: 24 hr Dox Inducible TNFaFLGluc 293FRT/TO: Mean IC50. Summed up:
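A stable T-REx cell line carrying doxycycline-inducible TNFα-FL/Gaussia luciferase was plated the day before assay. Compound dilutions in DMSO/media containing doxycycline were then added and incubated at 37° C, 5% CO2.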

Test [4] concerns human multiple myeloma cell line U266B1. Briefly: U266 Cell Viability Assay. Conditions: U-266, 48 hr, U266B1 cells, Celltiter-Glo, read-out: 48 hr U266 Viability Celltiter-Glo: Mean EC50. A digest of the protocol:
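U266B1 myeloma cells treated with compound dilutions in DMSO/media for 48 h at 37 °C, 5% CO2. Viability read by CellTiter-Glo luminescence. Stereochemically undefined structures were tested as stereoisomer mixtures.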
(In general: Cellular ATP, detected with luciferase, serves as a proxy for viable cell number.)

For test [5], the system named is human multiple myeloma cell line NCI-H929. Briefly: H929 Cell Viability Assay. Conditions: 48 hr, NCI-H929 cells, Celltiter-Glo, read-out: 48 hr H929 Viability Celltiter-Glo: Mean EC50. The method, then: Plates were incubated at 37° C., 5% CO2 for 48 hours. After 48 hours, Celltiter-Glo® (Promega) was added to each well and luciferase signal was quantified using Tecan Infinite M1000 Pro for cell viability determination.
For chemical structures that include one or more stereoisomers, but are illustrated without indicating stereochemistry, the assay data refers to a mixture of stereoisomers.

The subject of test [6] is IL-2-FL/Gaussia Luciferase. Briefly: Dox Induced IL2-FL-Gluc Assay. As to conditions: 293FRT/TO cells, read-out: 24 hr Dox Inducible IL2FLGIuc 293FRT/TO: Mean IC50. A digest of the protocol:
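Stable T-REx cell line expressing doxycycline-inducible IL-2-FL/Gaussia luciferase cDNA, plated the day before assay. Compound dilutions in DMSO/media containing doxycycline added and incubated at 37° C., 5% CO2. Unspecified stereochemistry means data refer to a stereoisomer mixture.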

Setting [7] is: 24 hr doxycycline induction, Gaussia luciferase signal.

pEC50, pIC50: −log10 of the molar value. Like-named read-outs stand apart in the source and are kept apart here.

Broadly, the pEC50 is the EC50 on a negative log10 scale, so that one unit is a factor of ten. Consider `CC(C)(COc1ccccn1)c1csc(NC(=O)c2cccn2Cc2ccncc2)n1` [Compound A260], for which the pIC50 was 6.32 in test [1] (setting [7]), 6.01 in test [2] (setting [7]), 5.34 in test [3] (setting [7]) and 6.02 in test [6] (setting [7]). Moreover, the pEC50 in test [4] was below 4.60; in test [5] it was 4.96.
Consider `Cc1cccnc1/C=C/c1csc(NC(=O)c2cccn2Cc2ccncc2)n1` [Compound A347], for which the pIC50 in test [1] (24 hr, doxycycline-induced) is 7.38; in test [2] (24 hr, doxycycline-induced) it was 5.22; in test [3] (24 hr, doxycycline-induced), 4.88; in test [6] (24 hr, doxycycline-induced) it was 5.02. For the same compound, the pEC50 was 4.69 in test [4] and 4.62 in test [5].
As to `COc1cccc(C(C)OC(C)(C)c2csc(NC(=O)c3cccn3Cc3ccncc3)n2)c1` (stereo not drawn) [Compound A4, N-(4-(2-(1-(3-methoxyphenyl)ethoxy)propan-2-yl)thiazol-2-yl)-1-(pyridin-4-ylmethyl)-1H-pyrrole-2-carboxamide], the pIC50 is 7.42 in test [1] (setting [7]), 7.04 in test [2] (setting [7]), 6.42 in test [3] (setting [7]) and 6.83 in test [6] (setting [7]). Besides, the values for the pEC50 in test [4] and in test [5] were below 4.60 and 5.56, respectively.
`O=C(Nc1nc(C2CN(c3ccccc3)C2)cs1)c1cccn1Cc1ccncc1` [Compound A316]: the pIC50 in test [1] (24 hr, doxycycline-induced) was 6.93; in test [2] (24 hr, doxycycline-induced), 6.50; in test [3] (24 hr, doxycycline-induced) it was 5.50; in test [6] (24 hr, doxycycline-induced) it was 6.12. The pEC50 in test [4] and in test [5] was below 4.60 throughout.
As to `Cc1cc(NC(=O)c2cccn2Cc2ccncc2)no1` [Compound B8, N-(5-methylisoxazol-3-yl)-1-(pyridin-4-ylmethyl)-1H-pyrrole-2-carboxamide], the pIC50 is 5.04 in test [1] (24 hr, doxycycline-induced); below 4.60 in test [2] (24 hr, doxycycline-induced); below 4.60 in test [3] (24 hr, doxycycline-induced); below 4.60 in test [6] (24 hr, doxycycline-induced). The pEC50 in test [4] and in test [5] was below 4.60 each time.
Take `O=C(Nc1nc(C2CCC(c3ccccc3)CC2)cs1)c1cccn1Cc1ccncc1` (stereo not drawn) [Compound A255]: the pIC50 in test [1] (setting [7]) was 6.99; in test [2] (setting [7]) it was 6.60; in test [3] (setting [7]), 5.88; in test [6] (setting [7]), 6.32. Further, the results for the pEC50 in test [4] and in test [5] were 4.74 and 5.14, respectively.
As to `O=C(Nc1nc([C@H]2CCCN2c2ccccc2)cs1)c1cccn1Cc1ccncc1` [Compound A275], the pIC50 in test [1] (setting [7]) is 7.82; in test [2] (setting [7]), 7.49; in test [3] (setting [7]) it was 6.83; in test [6] (setting [7]) it was 7.54. The pEC50 in test [4] is below 4.60; in test [5], 5.83.
As to `O=C(Nc1nc(CCc2ccc(Cl)cc2)cs1)c1cccn1Cc1ccncc1` [Compound A180], the pIC50 in test [1] (setting [7]) was 7.24; in test [2] (setting [7]) it was 6.81; in test [3] (setting [7]), 6.13; in test [6] (setting [7]) it was 6.55. Besides, the pEC50 in test [4] is 5.19; in test [5], 5.14.
Consider `CCc1sc(NC(=O)c2cccn2Cc2ccncc2)nc1C` [Compound A43], for which the pIC50 in test [1] (setting [7]) is 6.03; in test [2] (setting [7]) it was 5.65; in test [3] (setting [7]), below 4.60; in test [6] (setting [7]) it was 5.57. Also, the pEC50 in test [4] and in test [5] was below 4.60 each time.
`CC(C)Oc1ccc(/C=C/c2csc(NC(=O)c3cccn3Cc3ccncc3)n2)cc1` [Compound A236, N-(4-(4-isopropoxystyryl)thiazol-2-yl)-1-(pyridin-4-ylmethyl)-1H-pyrrole-2-carboxamide]: the pIC50 is 7.06 in test [1] (setting [7]), 6.27 in test [2] (setting [7]), 5.49 in test [3] (setting [7]) and 6.00 in test [6] (setting [7]). The figures for the pEC50 in test [4] and in test [5] were below 4.60 and 5.11, respectively.
`CC(C)c1coc(NC(=O)c2cccn2Cc2ccncc2)n1` [Compound B5, N-(4-isopropyloxazol-2-yl)-1-(pyridin-4-ylmethyl)-1H-pyrrole-2-carboxamide]: the pIC50 is 5.49 in test [1] (24 hr, doxycycline-induced); 4.90 in test [2] (24 hr, doxycycline-induced); below 4.60 in test [3] (24 hr, doxycycline-induced); 4.98 in test [6] (24 hr, doxycycline-induced). For the same compound, the pEC50 in test [4] and in test [5] was below 4.60 throughout.
For the compound `CC(C)(OC1CCCCC1)c1csc(NC(=O)c2cccn2Cc2ccncc2)n1` [Compound A10, N-(4-(2-(cyclohexyloxy)propan-2-yl)thiazol-2-yl)-1-(pyridin-4-ylmethyl)-1H-pyrrole-2-carboxamide], the pIC50 in test [1] (setting [7]) was 6.98; in test [2] (setting [7]), 6.71; in test [3] (setting [7]) it was 5.80; in test [6] (setting [7]) it was 6.80. Moreover, the pEC50 is below 4.60 in test [4] and 4.81 in test [5].
On to `CC(C)OC(C)(C)c1csc(NC(=O)c2cccn2Cc2ccncc2Cl)n1` [Compound A238, 1-((3-chloropyridin-4-yl)methyl)-N-(4-(2-isopropoxypropan-2-yl)thiazol-2-yl)-1H-pyrrole-2-carboxamide], for which the pIC50 is 6.19 in test [1] (setting [7]), 5.80 in test [2] (setting [7]), 4.74 in test [3] (setting [7]) and 5.92 in test [6] (setting [7]). Also, the pEC50 in test [4] and in test [5] was below 4.60 throughout.
On to `COc1cccc(C#Cc2csc(NC(=O)c3cccn3Cc3ccncc3)n2)c1` [Compound A142], for which the pIC50 in test [1] (setting [7]) is 6.62; in test [2] (setting [7]), 6.25; in test [3] (setting [7]) it was 5.27; in test [6] (setting [7]), 5.98. The pEC50 in test [4] and in test [5] was below 4.60 throughout.
For `O=C(Nc1nc([C@H]2C[C@H](c3ccccn3)C2)cs1)c1cccn1Cc1ccncc1` [Compound A350], the pIC50 in test [1] (24 hr, doxycycline-induced) is 6.15; in test [2] (24 hr, doxycycline-induced), 5.62; in test [3] (24 hr, doxycycline-induced), 4.83; in test [6] (24 hr, doxycycline-induced), below 4.60. Besides, the pEC50 in test [4] and in test [5] was below 4.60 throughout.
As for `O=C(Nc1nc2c(s1)CCC2)c1cccn1Cc1ccncc1` [Compound A56], the pIC50 is 5.85 in test [1] (setting [7]), 5.27 in test [2] (setting [7]), below 4.60 in test [3] (setting [7]) and 5.19 in test [6] (setting [7]). Besides, the pEC50 in test [4] and in test [5] was below 4.60 throughout.
As to `O=C(Nc1nc([C@H]2CC(F)(F)CN2c2ccccc2)cs1)c1cccn1Cc1ccncc1` [Compound A339], the pIC50 in test [1] (24 hr, doxycycline-induced) is 7.74; in test [2] (24 hr, doxycycline-induced) it was 7.54; in test [3] (24 hr, doxycycline-induced) it was 6.65; in test [6] (24 hr, doxycycline-induced), 7.89. The values for the negative-log EC50 (pEC50) in test [4] and in test [5] were below 4.60 and 5.88, respectively.
Turning to `O=C(Nc1nc(/C=C/c2ccc(F)cn2)cs1)c1cccn1Cc1ccncc1` [Compound A342], the pIC50 in test [1] (24 hr, doxycycline-induced) is 7.17; in test [2] (24 hr, doxycycline-induced) it was 6.02; in test [3] (24 hr, doxycycline-induced), below 4.60; in test [6] (24 hr, doxycycline-induced), 5.86. The pEC50 in test [4] is below 4.60; in test [5], 4.62.
In the case of `CC(C)OC(C)(C)c1csc(NC(=O)c2cncn2Cc2ccncc2)n1` [Compound A104, N-(4-(2-isopropoxypropan-2-yl)thiazol-2-yl)-1-(pyridin-4-ylmethyl)-1H-imidazole-5-carboxamide], the pIC50 in test [1] (setting [7]), in test [2] (setting [7]), in test [3] (setting [7]) and in test [6] (setting [7]) was below 4.60 throughout. For the same compound, the pEC50 in test [4] and in test [5] was below 4.60 throughout.
In the case of `CCN(C(=O)c1cccn1Cc1ccncc1)c1nc(C)cs1` [Compound A98], the pIC50 in test [1] (setting [7]) was 4.71; in test [2] (setting [7]) it was below 4.60; in test [3] (setting [7]), below 4.60; in test [6] (setting [7]), below 4.60. Besides, the pEC50 in test [4] and in test [5] was below 4.60 each time.
